pIC50: −log10 of the molar value.
Experiments:
[1] = Dose normalized Cmax in beagle dog at 10 mg/kg, po via gavage by HPLC-MS/MS analysis; format: ADME, organism-based, Canis lupus familiaris; details: in vivo
[2] = Dose normalized Cmax in beagle dog at 75 mg/kg, po via gavage by HPLC-MS/MS analysis; format: ADME, organism-based, Canis lupus familiaris; details: in vivo
[3] = Dose normalized Cmax in Sprague-Dawley rat at 3 mg/kg, po via gavage by HPLC-MS/MS analysis; format: ADME, organism-based; details: in vivo
[4] = Apparent permeability across apical to basolateral side in MDCK-MDR1 cells; format: ADME, cell-based, Canis lupus familiaris; details: dog
[5] = Oral bioavailability in beagle dog at 10 mg/kg via gavage by HPLC-MS/MS analysis; format: ADME, organism-based, Canis lupus familiaris; details: in vivo
[6] = Tmax in C57BL/6 mouse at 0.4 mg/kg, iv bolus injection or 3 mg/kg, po by LC-MS/MS analysis; format: ADME, organism-based; details: in vivo
[7] = Volume of distribution at steady state in beagle dog at 1 mg/kg, iv by HPLC-MS/MS analysis; format: ADME, organism-based, Canis lupus familiaris; details: in vivo, read-out: Vdss
[8] = Oral bioavailability in Sprague-Dawley rat at 3 mg/kg via gavage by HPLC-MS/MS analysis; format: ADME, organism-based; details: in vivo
[9] = Clearance in C57BL/6 mouse at 0.4 mg/kg, iv bolus injection or 3 mg/kg, po by LC-MS/MS analysis; format: ADME, organism-based; details: in vivo
[10] = Oral bioavailability in Sprague-Dawley rat at 30 mg/kg via gavage by HPLC-MS/MS analysis; format: ADME, organism-based; details: in vivo
physchem = details: buffer, pH 7.4
[11] = Dose normalized Cmax in Sprague-Dawley rat at 100 mg/kg, po via gavage by HPLC-MS/MS analysis; format: ADME, organism-based; details: in vivo
[12] = Dose normalized AUC (0 to t) in Sprague-Dawley rat at 100 mg/kg, po via gavage by HPLC-MS/MS analysis; format: ADME, organism-based; details: in vivo
Bile salt export pump = Bile salt export pump (Homo sapiens, UniProt O95342); assay: Inhibition of BSEP (unknown origin)
[13] = Clearance in beagle dog at 1 mg/kg, iv administered as bolus dose by HPLC-MS/MS analysis; format: ADME, organism-based, Canis lupus familiaris; details: in vivo
[14] = Half life in beagle dog at 1 mg/kg, iv by HPLC-MS/MS analysis; format: ADME, organism-based, Canis lupus familiaris; details: in vivo
[15] = Dose normalized AUC in C57BL/6 mouse at 1 mg/kg, iv by LC-MS/MS analysis; format: ADME, organism-based; details: in vivo
[16] = Oral bioavailability in C57BL/6 mouse at 3 mg/kg by LC-MS/MS analysis; format: ADME, organism-based; details: in vivo
[17] = Oral bioavailability in Sprague-Dawley rat at 100 via gavage mg/kg by HPLC-MS/MS analysis; format: ADME, organism-based; details: in vivo, 100 mg/kg
Plasminogen = Plasminogen (Homo sapiens, UniProt P00747); format: single protein
[18] = Half life in Sprague-Dawley rat at 1 mg/kg, iv administered as bolus dose by HPLC-MS/MS analysis; format: ADME, organism-based; details: in vivo
[19] = AUC (0 to t) in Sprague-Dawley rat at 1 mg/kg, iv administered as bolus dose by HPLC-MS/MS analysis; format: ADME, organism-based; details: in vivo
[20] = Dose normalized AUC (0 to t) in beagle dog at 10 mg/kg, po via gavage by HPLC-MS/MS analysis; format: ADME, organism-based, Canis lupus familiaris; details: in vivo

Sequence of Bile salt export pump (O95342 whole entry): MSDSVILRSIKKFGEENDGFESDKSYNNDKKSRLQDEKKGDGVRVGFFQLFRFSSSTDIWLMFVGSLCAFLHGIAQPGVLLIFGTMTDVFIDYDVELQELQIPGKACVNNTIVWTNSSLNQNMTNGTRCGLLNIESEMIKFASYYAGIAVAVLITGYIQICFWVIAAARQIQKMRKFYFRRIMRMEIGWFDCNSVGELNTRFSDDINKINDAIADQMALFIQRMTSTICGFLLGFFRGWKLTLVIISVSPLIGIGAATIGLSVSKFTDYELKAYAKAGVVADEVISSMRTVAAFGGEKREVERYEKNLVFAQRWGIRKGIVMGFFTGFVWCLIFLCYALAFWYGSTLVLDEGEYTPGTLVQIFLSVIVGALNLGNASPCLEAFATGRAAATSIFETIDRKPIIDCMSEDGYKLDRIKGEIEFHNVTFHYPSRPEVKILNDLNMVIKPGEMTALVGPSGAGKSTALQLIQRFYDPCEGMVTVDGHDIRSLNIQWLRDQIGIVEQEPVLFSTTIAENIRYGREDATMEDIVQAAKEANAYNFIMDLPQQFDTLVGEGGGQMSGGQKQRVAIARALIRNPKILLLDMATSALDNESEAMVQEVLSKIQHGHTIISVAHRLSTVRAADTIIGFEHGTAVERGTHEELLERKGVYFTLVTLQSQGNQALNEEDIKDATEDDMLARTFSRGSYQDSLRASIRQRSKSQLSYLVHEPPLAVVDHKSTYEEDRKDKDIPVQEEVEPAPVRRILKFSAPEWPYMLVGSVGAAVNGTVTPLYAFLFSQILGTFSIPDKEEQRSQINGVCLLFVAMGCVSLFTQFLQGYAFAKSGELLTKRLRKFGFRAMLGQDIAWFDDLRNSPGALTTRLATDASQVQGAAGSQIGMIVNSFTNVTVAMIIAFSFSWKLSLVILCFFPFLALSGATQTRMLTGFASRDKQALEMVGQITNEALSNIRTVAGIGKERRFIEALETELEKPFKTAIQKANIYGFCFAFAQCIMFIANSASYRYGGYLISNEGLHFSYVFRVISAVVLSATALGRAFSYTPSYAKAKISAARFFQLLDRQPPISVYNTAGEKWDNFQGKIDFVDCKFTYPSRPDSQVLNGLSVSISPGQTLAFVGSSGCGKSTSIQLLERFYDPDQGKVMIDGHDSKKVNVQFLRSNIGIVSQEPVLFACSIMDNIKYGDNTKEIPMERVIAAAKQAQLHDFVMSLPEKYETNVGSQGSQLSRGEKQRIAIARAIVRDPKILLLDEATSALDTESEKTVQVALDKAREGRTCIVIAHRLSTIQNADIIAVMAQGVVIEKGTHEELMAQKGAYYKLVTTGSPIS
Sequence of Plasminogen (P00747 97-580 limits assumed): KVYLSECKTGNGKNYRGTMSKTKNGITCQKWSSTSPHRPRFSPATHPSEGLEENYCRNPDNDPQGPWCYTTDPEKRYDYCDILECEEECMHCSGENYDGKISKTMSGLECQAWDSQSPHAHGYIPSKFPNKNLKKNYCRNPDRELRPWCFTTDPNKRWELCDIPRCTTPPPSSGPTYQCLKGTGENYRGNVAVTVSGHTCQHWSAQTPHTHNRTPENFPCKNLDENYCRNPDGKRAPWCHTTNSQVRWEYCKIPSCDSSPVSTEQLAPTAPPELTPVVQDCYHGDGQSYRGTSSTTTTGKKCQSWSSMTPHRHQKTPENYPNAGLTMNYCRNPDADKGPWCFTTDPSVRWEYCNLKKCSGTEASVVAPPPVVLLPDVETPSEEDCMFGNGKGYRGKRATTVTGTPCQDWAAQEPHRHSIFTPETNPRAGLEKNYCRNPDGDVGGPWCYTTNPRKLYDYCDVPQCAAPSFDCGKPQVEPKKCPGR
Sequence of Plasminogen (P00747 581-810 limits assumed): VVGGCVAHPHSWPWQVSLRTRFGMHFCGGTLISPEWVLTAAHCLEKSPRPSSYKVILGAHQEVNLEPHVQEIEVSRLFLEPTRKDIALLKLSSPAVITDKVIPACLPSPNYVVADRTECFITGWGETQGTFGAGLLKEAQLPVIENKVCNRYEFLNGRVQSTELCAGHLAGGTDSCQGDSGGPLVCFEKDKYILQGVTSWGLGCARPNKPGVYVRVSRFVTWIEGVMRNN

Cmax/dose [1]: 217 nM | Cmax/dose [2]: 504 nM | Cmax/dose [3]: 77 nM | Papp A→B [4]: 0.4 ×10⁻⁶ cm/s | bioavailability [5]: 5% | Tmax [6]: 1 h | Vd [7]: 0.3 L/kg | bioavailability [8]: 10% | clearance [9]: 11 mL/min/kg | bioavailability [10]: 19% | logD (physchem): 2.2 | Cmax/dose [11]: 323 nM | AUCt/dose [12]: 1770 nM·h | clearance [13]: 4.4 mL/min/kg | half-life [14]: 2.8 h | AUC/dose [15]: 3264 nM·h | bioavailability [16]: 16% | bioavailability [17]: 45% | pIC50 (Plasminogen): 5.72 | half-life [18]: 6.4 h | AUC(0-t) [19]: 3.33 µM·h | AUCt/dose [20]: 560 nM·h
Structure (SMILES): CC(C)c1cc(-c2ccc3c(c2)[C@H](N)CO3)cc([C@H](O)Cn2ccc3cccc(C(=O)O)c32)c1
pIC50 (Bile salt export pump): 4.55

— ChEMBL document CHEMBL4619774 (J Med Chem, 2020)
